Measurements: patent US20160375088A1, “CARDIOLIPIN-TARGETED PEPTIDES INHIBIT BETA-AMYLOID OLIGOMER TOXICITY” (priority 2013, published 2016)

Legend:
[1] = target: T1, Aβ1-42-Cardiolipin-Cu^2+ complex (Homo sapiens, UniProt P05067); test: Aβ1-42-Cardiolipin-Cu2+ complex oxygenase activity (Amplex Red, no H2O2); format: biochemical; settings: for increase in Aβ1-42-mediated oxygenase activity compared to the non-metal treated control: 10 μM metal salt incubated with cardiolipin and Aβ1-42 oligomers; for reduction in Aβ1-42-mediated oxygenase activity compared to untreated controls: 10 μM peptide, 30 μM CuCl2, 50 μM Amplex Red; for reduction in Aβ1-42-mediated oxygenase activity compared to untreated controls / inhibition of Aβ1-42-mediated oxygenase activity compared to untreated controls: 30 μM TLCL; for inhibition of Aβ1-42-mediated oxygenase activity compared to untreated controls: 100 μM peptide; for inhibition of Cu2+-dependent stimulation of Aβ1-42-mediated oxygenase activity, dose dependence: FIG. 4B, varying peptide concentrations
T1 construct: purchased Life Technologies
Protocol: Oligomerization of Aβ1-42 Peptide: Aβ1-42 peptide was dissolved in 1.5 mL of a 1:1 water/acetonitrile solution. 500 μL aliquots were frozen in a methanol/dry ice cooling bath and then lyophilized. Once lyophilized, each aliquot was dissolved in 20 μL DMSO. The aliquots were then vortexed, centrifuged, and sonicated in a water bath at room temperature. 200 μL of filtered 1×PBS and 20 μL of 2% SDS were subsequently added. The Aβ1-42 peptide solution was incubated at 37° C. for 6 hours. 580 μL of water was subsequently added to the Aβ1-42 peptide solution, followed by a 16 hour incubation at 37° C. prior to being stored at 4° C.
Measurement of Aβ1-42-Cardiolipin-Cu^2+ Complex Oxygenase Activity:
Aβ1-42-Cardiolipin-Cu^2+ oxygenase activity was measured using the Amplex Red kit. Amplex Red is a dye that reacts with H2O2 in a 1:1 stoichiometric ratio to produce a highly fluorescent derivative called resorufin (λex/λem=570/585 nm). The presence of peroxidase activity in an Amplex reaction lacking H2O2 is an indicator of oxygenase activity resulting from the reaction between the Amplex Red reagent and oxygen in the solution. All experiments were conducted in the absence of H2O2. A measurement was immediately taken after the introduction of Amplex Red, the last reagent that was added to the reaction. The reaction was allowed to proceed for an additional 10 minutes. Continuous time course data over the 10-minute period was obtained using a microplate spectrofluorometer (Molecular Devices, Sunnyvale, Calif.).

Aβ1-42 oligomers [2] = target: T2, Aβ1-42 oligomers (Homo sapiens, UniProt P05067); test: Fluorescence emission spectra: interaction of peptide with Aβ1-42 oligomers; format: binding; set-up: purchased Life Technologies; settings: for shift of emission on contact with Aβ oligomers: 1 μM Aβ oligomers; for emission maximum (λmax) with Aβ oligomers: 20 mM Hepes pH 7.4, 1 μM Aβ oligomers
Excerpt: Interaction of Aromatic-cationic Peptides with Aβ1-42 Oligomers:
D-Arg-2′,6′-Dmt-Lys-Ald-NH2 ([ald]SS-31) is an aladan (ald) containing derivative of D-Arg-2′,6′-Dmt-Lys-Phe-NH2 (SS-31). See Birk et al., J Am Soc Nephrol. 24(8): 1250-1261 (2013). […] Thus, interaction between D-Arg-2′,6′-Dmt-Lys-Ald-NH2 ([ald]SS-31) and phospholipids causes an observable shift in the fluorescence spectra of the peptide. See Birk et al., J Am Soc Nephrol. 24(8): 1250-1261 (2013). […] The fluorophore aladan was used as a control. All experiments were conducted in 20 mM Hepes (pH 7.4) so as to replicate an environment with physiological pH.

Aβ1-42 oligomers [3] = target: T2, Aβ1-42 oligomers; test: Transmission electron microscopy of Aβ fibril formation
Aβ1-42 oligomers [4] = target: T2, Aβ1-42 oligomers; test: Turbidity (right-angle light scattering at 633 nm) of peptides with Aβ1-42 oligomers; set-up: purchased Life Technologies; settings: 40 μM Aβ, Hepes pH 7.4
Protocol: Turbidity Measurements of Aromatic-Cationic Peptides Complexed with Aβ1-42 Oligomers: The turbidity of solutions containing aromatic-cationic peptides and/or Aβ1-42 oligomers was measured via right-angle scattering at λ=633 nm (Hitachi F-4500 Fluorescent Spectrophotometer). All experiments were conducted in Hepes (pH 7.4) and scanned immediately.

[5] = 800 nM Aβ oligomers, 30 μM CuCl2

T1 sequence (P05067 672-713 limits assumed, one chain of several): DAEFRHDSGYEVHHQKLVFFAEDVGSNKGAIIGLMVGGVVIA
T2 sequence (P05067 672-713 limits assumed): as the sequence (P05067 672-713 limits assumed, one chain of several) above

Compound	increase in Aβ1-42-mediated oxygenase activity compared to the non-metal treated control [1]	reduction in Aβ1-42-mediated oxygenase activity compared to untreated controls ([1]; 800 nM Aβ oligomers)	inhibition of Aβ1-42-mediated oxygenase activity compared to untreated controls [1, 5]	inhibition of Cu2+-dependent stimulation of Aβ1-42-mediated oxygenase activity, dose dependence [1]	shift of emission on contact with Aβ oligomers (Aβ1-42 oligomers [2])	emission maximum (λmax) with Aβ oligomers (Aβ1-42 oligomers [2]; 1 μM, λex=360 nm)	change in light scattering (turbidity) compared to Aβ1-42 oligomer control sample (Aβ1-42 oligomers [4])	light scattering (Aβ1-42 oligomers [4])	other results
CCCCCC=CCC=CCCCCCCCC(=O)OCC(COP(=O)(O)OCC(O)COP(=O)(O)OCC(COC(=O)CCCCCCCC=CCC=CCCCCC)OC(=O)CCCCCCCC=CCC=CCCCCC)OC(=O)CCCCCCCC=CCC=CCCCCC (stereo not drawn) [TLCL, 1,1′,2,2′-tetralinoleoyl cardiolipin, reference compound]	–	–	–	–	–	–	–	–	stimulation of Aβ1-42-mediated oxygenase activity in the presence of Cu2+ ions by phospholipid [1, 5]: capable of stimulating
O=[N+]([O-])[O-].O=[N+]([O-])[O-].[Cu+2] [Cu(NO3)2, copper (II) nitrate hydrate, reference compound]	500%	–	–	–	–	–	–	–	–
D-Arg-2′,6′-Dmt-Lys-Ald-NH2 [[ald]SS-31]	–	90%	complete inhibition	dose dependent	blue shift	465 nm	six-fold increase	–	emission maximum (λmax) before Aβ oligomers (Aβ1-42 oligomers [2]; 1 μM, λex=360 nm, 20 mM Hepes pH 7.4, no Aβ): 535 nm; incubation time resulting in formation of Aβ fibrils (Aβ1-42 oligomers [3]; natural fibrillation takes at least seven days): 25 min; increase in the rate of fibril formation (Aβ1-42 oligomers [3]; versus natural fibrillation): 400 fold
CN(C)c1ccc2cc(C(=O)CC(N)C(=O)O)ccc2c1 (stereo not drawn) [Ald, β-(6′-dimethylamino-2′-naphthoyl)alanine, reference compound]	–	–	–	–	no shift	535 nm	no change in turbidity	about 180 RFUs	–
[Cl][Cu][Cl] [CuCl2, copper (II) chloride, reference compound]	> 500%	–	–	–	–	–	–	–	–
D-Arg-2′,6′-Dmt-Lys-Phe-NH2 [SS-31]	–	90%	complete inhibition	dose dependent	–	–	no change in turbidity	about 180 RFUs	–
